Measurements taken from ChEMBL document CHEMBL1201862, “PubChem BioAssay data set” (2004).
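Step 1: Grow cells in 96-well plates. Step 2: Expose to compound for 48 hours at 5 concentrations. Step 3: Interpolate endpoints linearly; if unreached, use highest concentration. The concentration for 50% growth inhibition is given as GI50.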 Calls of active or inactive are those of the source. Rule as the data show it: active = GI50 up to about 1.1 µM and inactive = higher.

Columns and labels:
Test in all cases: NCI-60 cell line screen, 48 h
A498 = system: A498
SK-OV-3 = system: SK-OV-3
NCI-H226 = system: NCI-H226
K562 = system: K562
OVCAR-3 = system: OVCAR-3
SK-MEL-5 = system: SK-MEL-5
HCC 2998 = system: HCC 2998
HOP-62 = system: HOP-62
SNB-19 = system: SNB-19
SW-620 = system: SW-620
HL-60 = system: HL-60
MDA-MB-435 = system: MDA-MB-435
RXF 393 = system: RXF 393
OVCAR-5 = system: OVCAR-5
SF-539 = system: SF-539
MDA-N = system: MDA-N
Hs-578T = system: Hs-578T
SN12C = system: SN12C
MDA-MB-231 = system: MDA-MB-231

Measured: GI50

CC(C)(C)c1cc2c(O)c(c1)COCc1cc(C(C)(C)C)cc(c1O)COCc1cc(C(C)(C)C)cc(c1O)COC2
inactive: A498 46.6 µM | SK-OV-3 > 100 µM | NCI-H226 > 100 µM | K562 > 100 µM | OVCAR-3 > 100 µM | SK-MEL-5 99.3 µM | HCC 2998 > 100 µM | HOP-62 > 100 µM | SNB-19 6.04 µM | SW-620 > 100 µM | HL-60 31.1 µM | MDA-MB-435 > 100 µM | RXF 393 32.4 µM | OVCAR-5 > 100 µM

O=C(O)c1ccccc1/C=C1/Cc2ccc3c(c2C1=O)CCC3
inactive: A498 38.3 µM | SF-539 23.9 µM | MDA-N 29.6 µM | NCI-H226 36.2 µM | K562 33.3 µM | OVCAR-3 31.8 µM | SK-MEL-5 18.2 µM | HCC 2998 30.5 µM | HOP-62 68.9 µM | SNB-19 54.7 µM | SW-620 58.9 µM | HL-60 20.1 µM | Hs-578T 32.2 µM | MDA-MB-435 26.3 µM | SN12C 51.8 µM | RXF 393 38.2 µM | OVCAR-5 20.9 µM

Fc1cccc(F)c1C1SCc2nc3ccc(Cl)cc3n21 (stereo not drawn)
inactive: SF-539 > 100 µM | MDA-N > 100 µM | MDA-MB-231 > 100 µM | SK-OV-3 > 100 µM | K562 51.1 µM | OVCAR-3 > 100 µM | SK-MEL-5 85.3 µM | HCC 2998 > 100 µM | HOP-62 > 100 µM | SNB-19 > 100 µM | SW-620 > 100 µM | HL-60 40.5 µM | Hs-578T > 100 µM | MDA-MB-435 > 100 µM | SN12C > 100 µM | RXF 393 > 100 µM | OVCAR-5 > 100 µM

Cc1ccc(-n2c(Cn3nnc(-c4cccnc4)n3)nn(C3OC(COC(=O)c4ccccc4)C(OC(=O)c4ccccc4)C3OC(=O)c3ccccc3)c2=S)cc1 (stereo not drawn)
inactive: SF-539 > 100 µM | MDA-N > 100 µM | MDA-MB-231 > 100 µM | SK-OV-3 > 100 µM | NCI-H226 > 100 µM | K562 > 100 µM | OVCAR-3 > 100 µM | SK-MEL-5 > 100 µM | HCC 2998 > 100 µM | HOP-62 > 100 µM | SNB-19 32.3 µM | SW-620 > 100 µM | Hs-578T > 100 µM | MDA-MB-435 > 100 µM | SN12C > 100 µM | RXF 393 > 100 µM | OVCAR-5 > 100 µM

O=c1[nH]c(=O)c2ncn(-c3ccc([N+](=O)[O-])cn3)c2[nH]1
inactive: A498 > 100 µM | SF-539 > 100 µM | MDA-MB-231 > 100 µM | SK-OV-3 > 100 µM | NCI-H226 > 100 µM | K562 > 100 µM | OVCAR-3 > 100 µM | SK-MEL-5 > 100 µM | HCC 2998 > 100 µM | HOP-62 > 100 µM | SNB-19 > 100 µM | SW-620 > 100 µM | HL-60 > 100 µM | MDA-MB-435 > 100 µM | SN12C > 100 µM | RXF 393 > 100 µM | OVCAR-5 > 100 µM

COc1ccc2c(c1)CC[C@@H]1[C@@H]2CC[C@]2(C)C(=O)/C(=C/c3ccncc3)C[C@@H]12
inactive: A498 27.3 µM | SF-539 25.5 µM | MDA-N 42.6 µM | MDA-MB-231 64.7 µM | SK-OV-3 32.9 µM | NCI-H226 63 µM | K562 > 100 µM | OVCAR-3 17.8 µM | SK-MEL-5 20.2 µM | HCC 2998 27.4 µM | HOP-62 19.9 µM | SNB-19 44.3 µM | SW-620 31.2 µM | MDA-MB-435 30.4 µM | SN12C 55.6 µM | RXF 393 18.2 µM | OVCAR-5 48.9 µM

CC(C)CC(NC(=O)C(CI)Cc1ccccc1)C(=O)Nc1ccccc1 (stereo not drawn)
inactive: A498 > 100 µM | SF-539 > 100 µM | MDA-N > 100 µM | MDA-MB-231 > 100 µM | SK-OV-3 > 100 µM | K562 > 100 µM | OVCAR-3 > 100 µM | SK-MEL-5 > 100 µM | HCC 2998 > 100 µM | SNB-19 > 100 µM | SW-620 > 100 µM | HL-60 > 100 µM | MDA-MB-435 > 100 µM | SN12C > 100 µM | RXF 393 > 100 µM | OVCAR-5 > 100 µM

CCOC(=O)c1cn2c(n1)sc1cccc(C)c12
inactive: SF-539 > 100 µM | MDA-N > 100 µM | MDA-MB-231 > 100 µM | SK-OV-3 > 100 µM | NCI-H226 > 100 µM | OVCAR-3 > 100 µM | SK-MEL-5 63.4 µM | HCC 2998 > 100 µM | HOP-62 > 100 µM | SNB-19 > 100 µM | Hs-578T 21.7 µM | RXF 393 > 100 µM | OVCAR-5 > 100 µM
